Tested on: SW1271 complex spheroids with HUVEC/MSC, growth, % test/control
Test: Anticancer human tumor SW1271 cell line growth inhibition [AhR];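 also: spheroids exposed to agents for 7 days before readout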
Conditions: for IC50: curve of first compound; for viability, T/C: stronger effect = lower value
Method in brief: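 Agents were dosed in half-log steps down from roughly clinical Cmax, or from 10 microM where Cmax was unknown, alone and with AhR antagonists. Read-out: percent test/control growth of tumor spheroids containing HUVEC and MSC stromal cells.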

[1] = second compound 0.1 µM, first compound 0.0316 µM
[2] = second compound 0.1 µM, first compound 0.1 µM
[3] = second compound 0.1 µM, first compound 0.316 µM
[4] = second compound 0.1 µM, first compound 1 µM
[5] = second compound 0.1 µM, first compound 3.16 µM
[6] = second compound 0.1 µM, first compound 10 µM
[7] = second compound 0.316 µM, first compound 0.0316 µM
[8] = second compound 0.316 µM, first compound 0.1 µM
[9] = second compound 0.316 µM, first compound 0.316 µM
[10] = second compound 0.316 µM, first compound 1 µM
[11] = second compound 0.316 µM, first compound 3.16 µM
[12] = second compound 0.316 µM, first compound 10 µM
[13] = second compound 1 µM, first compound 0.0316 µM
[14] = second compound 1 µM, first compound 0.1 µM
[15] = second compound 1 µM, first compound 0.316 µM
[16] = second compound 1 µM, first compound 1 µM
[17] = second compound 1 µM, first compound 3.16 µM
[18] = second compound 1 µM, first compound 10 µM
[19] = second compound 3.16 µM, first compound 0.0316 µM
[20] = second compound 3.16 µM, first compound 0.1 µM
[21] = second compound 3.16 µM, first compound 0.316 µM
[22] = second compound 3.16 µM, first compound 1 µM
[23] = second compound 3.16 µM, first compound 3.16 µM
[24] = second compound 3.16 µM, first compound 10 µM
[25] = second compound 10 µM, first compound 0.0316 µM
[26] = second compound 10 µM, first compound 0.1 µM
[27] = second compound 10 µM, first compound 0.316 µM
[28] = second compound 10 µM, first compound 1 µM
[29] = second compound 10 µM, first compound 3.16 µM
[30] = second compound 10 µM, first compound 10 µM

Compound | IC50 (second compound 0.1 µM) | IC50 (second compound 0.316 µM) | IC50 (second compound 1 µM) | IC50 (second compound 3.16 µM) | IC50 (second compound 10 µM) | viability, T/C [1] | viability, T/C [2] | viability, T/C [3] | viability, T/C [4] | viability, T/C [5] | viability, T/C [6] | viability, T/C [7] | viability, T/C [8] | viability, T/C [9] | viability, T/C [10] | viability, T/C [11] | viability, T/C [12] | viability, T/C [13] | viability, T/C [14] | viability, T/C [15] | other results
Nc1ccccc1NC(=O)c1ccc(CNC(=O)OCc2cccnc2)cc1 + Cc1ccccc1N=Nc1ccc(NC(=O)c2ccnn2C)c(C)c1 | 1860 nM | 2770 nM | 2110 nM | 1740 nM | 1460 nM | 76.7% | 135% | 91% | 62.1% | 41.5% | 13.6% | 90.2% | 103% | 93.8% | 86% | 45.3% | 18% | 101% | 100% | 90.7% | viability, T/C [16]: 63.1%; viability, T/C [17]: 43.7%; viability, T/C [18]: 19.9%; viability, T/C [19]: 119%; viability, T/C [20]: 120%; viability, T/C [21]: 90.2%; viability, T/C [22]: 64.3%; viability, T/C [23]: 36.5%; viability, T/C [24]: 23.7%; viability, T/C [25]: 89%; viability, T/C [26]: 94%; viability, T/C [27]: 86.6%; viability, T/C [28]: 52.6%; viability, T/C [29]: 41.2%; viability, T/C [30]: 22.8%
O=C(c1cc(Cc2n[nH]c(=O)c3ccccc23)ccc1F)N1CCN(C(=O)C2CC2)CC1 + Cc1ccccc1N=Nc1ccc(NC(=O)c2ccnn2C)c(C)c1 | > 10000 nM | > 10000 nM | > 10000 nM | > 10000 nM | > 10000 nM | 82.5% | 101% | 98.3% | 91.4% | 88.4% | 78.9% | 106% | 104% | 102% | 98.7% | 96.3% | 90.8% | 79.5% | 116% | 104% | viability, T/C [16]: 92.5%; viability, T/C [17]: 114%; viability, T/C [18]: 98.3%; viability, T/C [19]: 94.3%; viability, T/C [20]: 109%; viability, T/C [21]: 104%; viability, T/C [22]: 81.9%; viability, T/C [23]: 99.2%; viability, T/C [24]: 100%; viability, T/C [25]: 89.4%; viability, T/C [26]: 107%; viability, T/C [27]: 108%; viability, T/C [28]: 83.5%; viability, T/C [29]: 89.5%; viability, T/C [30]: 102%
